The values that follow come from patent US5187188A, “Oxazole carboxylic acid derivatives” (Bristol-Myers Squibb Company, priority 1992, dated 1993).

Values after ≈ are worked out from the molar mass of the structure shown. Structures can show the parent of a compound that is named as a salt.

The test system of the assay is human platelets. The experiment in a line: In vitro inhibition of ADP-induced human platelet aggregation in platelet-rich plasma (aggregometer method of Born). Particulars: human PRP, 0.5 mcg/mL ADP, about three minutes preincubation. The class given is cell-based. On the procedure: The aggregometer method of Born, G. V. R., J. Physiol., (London), 162, 67-68, (1962) as modified by Mustard, J. F., et al., J. Lab. Clin. Med., 64, 548-599, (1964) Was used to assess the in vitro activity of the various compounds as to the inhibition of adenosine diphosphate (ADP) and collagen-induced platelet aggregation. The human volunteer donor's arm is cleansed with 70% ethyl alcohol. A sterile 20 ml syringe and needle are used to withdraw 20 ml of blood. The blood is immediately added to a test tube containing 3.8% sodium citrate to prevent clotting (1 part citrate to 9 parts blood).
Platelet rich plasma (PRP) was separated by centrifugation for 10 minutes at 1000 rpm (140×g) from citrated (3.8%) human blood. All glassware used for preparation of PRP is silicon treated. ADP in final concentration of 0.5 mcg/mL or 0.05 mL of a collagen suspension prepared according to the method described by Evans, G., et al., J. Exp. Med., 128, 877-894, (1968) was used to induce aggregation. The various compounds tested were dissolved in dimethylsulfoxide (DMSO) so that 5 mcl added to the platelet rich plasma would yield the desired test concentration. Vehicle control trials were done and compared with aggregation induced in platelet rich plasma containing various concentrations of the test compounds. Dose response curves were obtained and Inhibitor Concentration (IC50) values calculated.
The compounds listed in Table 1 were evaluated as inhibitors of human platelet aggregation in vitro in platelet-rich-plasma (PRP) using […] ADP as the inducing agent. The PRP was incubated with drug for about three minutes prior to the addition of the agonist. The extent of aggregation in the presence of various concentrations of test compounds was compared with that in vehicle controls. Dose-response curves were obtained and IC50 values determined.
As a reminder, the IC50 is the concentration that inhibits the measured activity by half. Low values mean greater potency in that assay, high ones weaker potency in that assay. For `CCOC(=O)C(=Cc1cccc(OCC(=O)OC(C)(C)C)c1)c1nc(-c2ccccc2)c(-c2ccccc2)o1` [Compound 7a, (E) and (Z)-Ethyl α-[[3-[[(1,1-dimethylethoxy)carbonyl]methoxyl]phenyl]methylene]-4,5-diphenyl-2-oxazoleacetate], the IC50 was > 32 µg/mL.
Consider `CCOC(=O)/C(=C\c1cccc(OCC(=O)OC)c1)c1nc(-c2ccccc2)c(-c2ccccc2)o1` [Compound 7b, (Z)-Ethyl-α-[[3-(2-methoxy-2-oxoethoxy)phenyl]methylene]-4,5-diphenyl-2-oxazole acetate], for which the IC50 amounted to 10 µg/mL.
Take `CCOC(=O)/C(=C/c1cccc(OCC(=O)OC)c1)c1nc(-c2ccccc2)c(-c2ccccc2)o1` [Compound 7c, (E)-Ethyl α-[[3-(2-methoxy-2-oxoethoxy)phenyl]methylene]-4,5-diphenyl-2-oxazole acetate]: half-maximal inhibition (IC50) required 1 µg/mL.
To `COC(=O)COc1cccc(C=C(C(=O)OC)c2nc(-c3ccccc3)c(-c3ccccc3)o2)c1` [Compound 7d, Methyl (E) and (Z) α-[[3-(2-methoxy-2-oxoethoxy)phenyl]methylene]-4,5-diphenyl-2-oxazoleacetate] belongs 0.5 µg/mL (≈ 1.06 µM).
To `CC(C)OC(=O)C(=Cc1cccc(OCC(=O)OC(C)(C)C)c1)c1nc(-c2ccccc2)c(-c2ccccc2)o1` [Compound 7e, (E) and (Z)-1-methylethyl α-[[3-[2-(1,1,-dimethylethoxy)-2-oxoethoxy]phenyl]-methylene]-4,5-diphenyl-2-oxazoleacetate] belongs > 32 µg/mL; to `COC(=O)COc1cccc(C=C(C(=O)OC(C)C)c2nc(-c3ccccc3)c(-c3ccccc3)o2)c1` [Compound 7f, (E) and (Z) 1-Methylethyl α-[[3-[2-(methoxy-2-oxoethoxy)phenyl]methylene]-4,5-diphenyl-2-oxazoleacetate], 5 µg/mL (≈ 10 µM).
With `COC(=O)COc1cccc(C=C(C(N)=O)c2nc(-c3ccccc3)c(-c3ccccc3)o2)c1` [Compound 7g, (E) and (Z) Methyl [3-[3-amino-2-(4,5-diphenyl)-2-oxazolyl]-3-oxo-1-propenyl]phenoxy]acetate], the IC50 stood at 2.5 µg/mL (≈ 5.5 µM).
For the compound `CNC(=O)C(=Cc1cccc(OCC(=O)OC)c1)c1nc(-c2ccccc2)c(-c2ccccc2)o1` [Compound 7h, (E) and (Z) Methyl [3-[2-(4,5-diphenyl-2-oxazolyl)-3-methylamino-3-oxo-propenyl]phenoxy]acetate], the IC50 is 1.3 µg/mL (≈ 2.77 µM).
On to `COC(=O)COc1cccc(/C=C(\C(=O)N(C)C)c2nc(-c3ccccc3)c(-c3ccccc3)o2)c1` [Compound 7i, (Z)-Methyl [3-[3-(dimethylamino)-2-(4,5-diphenyl-2-oxazolyl)-3-oxo-1-propenyl]phenoxy]acetate], for which the IC50 is > 32 µg/mL.
Compound `CCOC(=O)C(=Cc1cccc(OCC(=O)O)c1)c1nc(-c2ccccc2)c(-c2ccccc2)o1` [Compound 8a, (E) and (Z) Ethyl α-[[3-carboxymethoxy)phenyl]methylene]-4,5-diphenyl-2-oxazole acetate] came in with an IC50 of 0.17 µg/mL.
As to `O=C(O)COc1cccc(C=C(C(=O)O)c2nc(-c3ccccc3)c(-c3ccccc3)o2)c1` [Compound 8b], the IC50 is 9 µg/mL (≈ 20.4 µM).
For `CNC(=O)C(=Cc1cccc(OCC(=O)O)c1)c1nc(-c2ccccc2)c(-c2ccccc2)o1` [Compound 8d, (E) and (Z) [3-[2-(4,5-Diphenyl-2-oxazolyl)-3-(methylamino)-3-oxo-propenyl]phenoxy]acetic acid], 7 µg/mL (≈ 15.4 µM) corresponded to half-maximal inhibition (IC50).
On to `CN(C)C(=O)/C(=C\c1cccc(OCC(=O)O)c1)c1nc(-c2ccccc2)c(-c2ccccc2)o1` [Compound 8e, (Z)-[3-[3-(Dimethylamino)-2-(4,5-diphenyl-2-oxazolyl)-3-oxo-1-propenyl]phenoxy]acetic acid], for which the IC50 amounted to 5.8 µg/mL (≈ 12.4 µM).
`CCOC(=O)C(Cc1cccc(OCC(=O)OC(C)(C)C)c1)c1nc(-c2ccccc2)c(-c2ccccc2)o1` (stereo not shown) [Compound 9a]: the IC50 was > 32 µg/mL.
Regarding `CCOC(=O)C(Cc1cccc(OCC(=O)OC)c1)c1nc(-c2ccccc2)c(-c2ccccc2)o1` (stereo not drawn) [Compound 9b, Ethyl α-[(3-[(methoxycarbonyl)methoxyl]phenyl]-methyl]-4,5-diphenyl-2-oxazole acetate], the IC50 is 0.75 µg/mL.
On to `COC(=O)C(Cc1cccc(OCC(=O)OC(C)(C)C)c1)c1nc(-c2ccccc2)c(-c2ccccc2)o1` (stereo not drawn) [Compound 9c, Methyl α-[[3-(2-(1,1-dimethylethoxy-2-oxoethoxy)phenyl]methyl]-4,5-diphenyl-2-oxazole acetate], for which the IC50 was > 32 µg/mL.
`COC(=O)COc1cccc(CC(C(=O)OC)c2nc(-c3ccccc3)c(-c3ccccc3)o2)c1` (stereo not drawn) [Compound 9d, Methyl α-[[3-(2-methoxy-2-oxoethoxy)phenyl]methyl]-4,5-diphenyl-2-oxazole acetate] returned an IC50 of 0.6 µg/mL.
On to `CC(C)OC(=O)C(Cc1cccc(OCC(=O)OC(C)(C)C)c1)c1nc(-c2ccccc2)c(-c2ccccc2)o1` (stereo not drawn) [Compound 9e, 1-Methylethyl α-[[3-[2-(1,1-dimethylethoxy)-2-oxoethoxy)phenyl]methyl]-4,5-diphenyl-2-oxazoleacetate], for which the IC50 was > 32 µg/mL.
To `COC(=O)COc1cccc(CC(C(=O)OC(C)C)c2nc(-c3ccccc3)c(-c3ccccc3)o2)c1` (stereo not shown) [Compound 9f] belongs 3.5 µg/mL (≈ 7.01 µM); to `CC(C)(C)OC(=O)COc1cccc(CC(C(N)=O)c2nc(-c3ccccc3)c(-c3ccccc3)o2)c1` (stereo not shown) [Compound 9g, (t-Butyl [3-3-amino-2-(4,5-diphenyl-2-oxazolyl)-3-oxopropyl]phenoxy acetate], > 32 µg/mL; to `COC(=O)COc1cccc(CC(C(N)=O)c2nc(-c3ccccc3)c(-c3ccccc3)o2)c1` (stereo not drawn) [Compound 9h, Methyl[3-[α-Amino-2-(4,5-diphenyl-2-oxazolyl)-3-oxopropyl]phenoxy]acetic acid], > 32 µg/mL.
As for `CNC(=O)C(Cc1cccc(OCC(=O)OC)c1)c1nc(-c2ccccc2)c(-c2ccccc2)o1` (stereo not shown) [Compound 9i, Methyl[3-[2-(4,5-diphenyl-2-oxazolyl)-3-(methylamino)-3-oxo-propyl]phenoxy]acetate], the half-inhibitory concentration (IC50) turned out to be 3.5 µg/mL (≈ 7.44 µM).
`COC(=O)COc1cccc(CC(C(=O)N(C)C)c2nc(-c3ccccc3)c(-c3ccccc3)o2)c1` (stereo not shown) [Compound 9j] showed an IC50 of 16 µg/mL (≈ 33 µM).
The compound `CCOC(=O)C(Cc1cccc(OCC(=O)O)c1)c1nc(-c2ccccc2)c(-c2ccccc2)o1` (stereo not drawn) [Compound 10a, Ethyl α-[[3-hydroxy-2-oxoethoxyl]phenyl]methyl]-4,5-diphenyl-2-oxazole ace tate] came in with an IC50 of 0.06 µg/mL (≈ 0.127 µM).
As to `O=C(O)COc1cccc(CC(C(=O)O)c2nc(-c3ccccc3)c(-c3ccccc3)o2)c1` (stereo not drawn) [Compound 10b, α-[[3-(2-Hydroxy-2-oxoethoxy)phenyl]methyl]-4,5-diphenyl-2-oxazoleacetic acid, disodium salt], half-maximal inhibition (IC50) was put at 7 µg/mL.
The compound `COC(=O)C(Cc1cccc(OCC(=O)O)c1)c1nc(-c2ccccc2)c(-c2ccccc2)o1` (stereo not drawn) [Compound 10c, Methyl α-[[3-(2-hydroxy-2-oxoethoxy)phenyl]methyl]-4,5-diphenyl-2-oxazole acetate] yielded an IC50 of 0.037 µg/mL.
For `CC(C)OC(=O)C(Cc1cccc(OCC(=O)O)c1)c1nc(-c2ccccc2)c(-c2ccccc2)o1` (stereo not shown) [Compound 10d], the IC50 was found to be 0.6 µg/mL (≈ 1.24 µM).
`NC(=O)C(Cc1cccc(OCC(=O)O)c1)c1nc(-c2ccccc2)c(-c2ccccc2)o1` (stereo not shown) [Compound 10e, [3-[3-Amino-2-(4,5-diphenyl-2-oxazolyl)-3-oxopropyl]phenoxy]acetic acid] yielded an IC50 of 1.7 µg/mL (≈ 3.84 µM).
For `CNC(=O)C(Cc1cccc(OCC(=O)O)c1)c1nc(-c2ccccc2)c(-c2ccccc2)o1` (stereo not shown) [Compound 10f, [3-[2-(4,5-Diphenyl-2-oxazolyl)-3-(methylamino)-3-oxopropyl]phenoxy]acetic acid], the midpoint of inhibition, the IC50, lay at 0.32 µg/mL (≈ 0.701 µM).
For `CN(C)C(=O)C(Cc1cccc(OCC(=O)O)c1)c1nc(-c2ccccc2)c(-c2ccccc2)o1` (stereo not shown) [Compound 10g, [3-[3-(Dimethylamino)-2-(4,5-diphenyl-2-oxazolyl)-3-oxopropyl]phenoxy]acetic acid], the IC50 amounted to 1.7 µg/mL (≈ 3.61 µM).
Compound `COC(=O)COc1cccc(/C=C(\C#N)c2nc(-c3ccccc3)c(-c3ccccc3)o2)c1` [Compound 16, (E)-Methyl[3-[2-cyano-2-(4,5-diphenyl-2-oxazolyl)ethenyl]phenoxy]acetate] had an IC50 of 8 µg/mL (≈ 18.3 µM).
`N#C/C(=C\c1cccc(OCC(=O)O)c1)c1nc(-c2ccccc2)c(-c2ccccc2)o1` [Compound 17, (E)-[3-[2-cyano-2-(4,5-diphenyl-2-oxazolyl)ethenyl]phenoxy]acetic acid] registered an IC50 of 0.11 µg/mL (≈ 0.26 µM).
To `COC(=O)COc1cccc(CC(C#N)c2nc(-c3ccccc3)c(-c3ccccc3)o2)c1` (stereo not shown) [Compound 18] belongs 0.36 µg/mL (≈ 0.821 µM).
`N#CC(Cc1cccc(OCC(=O)O)c1)c1nc(-c2ccccc2)c(-c2ccccc2)o1` (stereo not shown) [Compound 19, [3-[2-Cyano-2-(4,5-diphenyl-2-oxazolyl)ethyl]phenoxy]acetic acid] displayed an IC50 of 0.2 µg/mL (≈ 0.471 µM).
